Test results published in US5096924A, “Anticancer antibiotic MI43-37F11 substance” (501 Azidan Hojin Biseibutsu Kagaku Kenkyu Kai, priority 1989, dated 1992).
Values after ≈ are worked out from the molar mass of the structure shown. “Also recorded” adds a separate entry of the source.

Tests used:
[1] = Solubility; type: physicochemical
[2] = test system: peritoneal macrophages; test: Effect on phagocytosis of the peritoneal macrophages; type: in vivo, CDF1 mice; details: for Rate (%) of Increase in phagocytic action of peritoneal macrophages: 3 days and one day before harvest, control 100
Procedure: (4) Experiments for estimation of the effect of the antibiotic MI43-37F11 substance on phagocytosis of the peritoneal macrophages were conducted by the following procedure. Thus, 3 days and one day before the harvest of the peritoneal macrophages, MI43-37F11 substance was intraperitoneally administered to CDF1 mice (female, 8-weeks old, 3 mice) at a dosage of 50 mg/kg, 5 mg/kg or 0.5 mg/kg. One day after the administration of MI43-37F11 substance, the peritoneal macrophages were harvested from the peritoneal cavity of the mice of the treated group of mice and then inoculated into a culture medium present in a plastic dish (Falcone) at the cell density of 5×10^5 cells/m(, followed by incubation of the macrophages. The incubated medium containing the macrophages was then added with 7.5×10^6 cells/ml of heat-treated yeast cells, followed by further incubation for a time. The macrophages were then fixed by addition of methanol and stained by Giemsa staining method. The number of the yeast cells which received the phagocytosis by 400 macrophages was counted. The control group of mice (untreated) received only intraperitoneal injection of physiological saline in place of the administration of MI43-37F11 substance, before the harvest of the peritoneal macrophages was done. Assumed that the number of the yeast cells which had received the phagocytosis by 400 macrophages as harvested from the mice of the control group was amounting to 100, the rate of increase in the phagocytic action of the peritoneal macrophages as harvested from the treated group of mice was evaluated. In other words, the rate (%) of increase in the phagocytic action of the peritoneal macrophages of the mice of the treated group was calculated according to the following equation: [formula] where T means the mumber of yeast cells having received the phagocytosis by 400 macrophages which were harvested from the treated group of mice, and C means the number of yeast cells having received the phagocytosis by 400 macrophages which were harvested from the control group of mice (untreated).

[3] = test system: mouse Leukemia EL4; test: Inhibition of proliferation of mouse leukemia EL4 cells; type: cell-based; details: 48 h; mouse leukemia EL4, 37° C, 2 days
Procedure: A cell suspension containing cells of mouse Leukemia L1210, mouse Leukemia P388, mouse Leukemia EL4, mouse IMC carcinoma or human lung cancer LX-1 cells in a culture medium containing 10% calf serum at a cell density of 1 x 10^5 cells/ml was prepared, and 200 μl-portion of the cell suspension so prepared was placed in a microplate and then added with a solution of MI43-37F11 substance at varying concentrations (dissolved in a mixture of water and dimethylsulfoxide (95:5)). The cell suspension containing the test compound added was subsequently incubated at 37° C for 2 days (but 5 days for the LX-1 cells).
After the incubation, the number of the cells of the L1210 cells, P388 cells, the EL4 cells and the IMC carcinoma cells in the treated groups was counted by means of Coulter-counter. The control group (untreated) of the cell suspension to which the test compound was not added was incubated in the same way as above and then the number of the cells was similarly counted.
Rate (%) of inhibition of the cell proliferation of the treated group against that of the control group (untreated) was evaluated. […]

[4] = Toxicity to mammalian; type: in vivo; details: general statement, no data
[5] = test system: Ehrlich carcinoma; test: Therapeutic treatment of Ehrlich carcinoma-bearing mice by intraperitoneal injection; type: in vivo, ICR mice
Procedure: (a) Experiments for therapeutic treatment of Ehrlich carcinoma-bearing mice were conducted by intraperitoneal injection of the antibiotic MI43-37F11 substance. Thus, a cell suspension of Ehrlich ascites carcinoma cells was subcutaneously inoculated at the abdominal region of ICR mice (female, 6-week old, 4 mice in each treated group) so that the number of the carcinoma cells as subcutaneously transplanted was 2×10^6 cells per mouse. After the transplantation of the carcinoma cells, the antibiotic MI43-37F11 substance was administered by intraperitoneal injection to the mice having the transplanted and firmly grown carcinoma cells, according to the following schedule of administration. Namely, MI43-37F11 substance was administered at a dosage of 10 mg/kg or 2.5 mg/kg or 0.625 mg/kg only once on the 7th day after the transplantation of the cells, or alternatively MI43-37F11 substance was administered at a dosage of 2.5 mg/kg or 1.25 mg/kg or 0.625 mg/kg, totally five times but every other day from the 7th day to the 14th day after the transplantation of the carcinoma cells. The administration of MI43-37F11 substance was not made but intraperitoneal injection of physiological saline was made in the mice of the control group (untreated) (8 mice in each control group).
On the 15th day after the transplantation of the carcinoma cells, the mass of the tumor (carcinoma) was surgically removed out of each mouse and weighed. The rate of the reduction in the weight of the tumor (carcinoma) obtained from the group of mice treated with MI43-37F11 substance was evaluated in term of the rate (%) of inhibition, with such an assumption that the weight of the tumor obtained from the control group of mice was amounting to 100. In other words, the rate (%) of inhibition to the growth of Ehrlich carcinoma was calculated according to the following equation [formula] where C means the weight of the tumor in the control group of mice (untreated) and T means the weight of the tumor of the treated group of mice.

[6] = test system: Ehrlich carcinoma; test: Activity against Ehrlich carcinoma (general statement); type: in vivo; details: general statement in words
Procedure: (a) Experiments for therapeutic treatment of Ehrlich carcinoma-bearing mice were conducted by intraperitoneal injection of the antibiotic MI43-37F11 substance. Thus, a cell suspension of Ehrlich ascites carcinoma cells was subcutaneously inoculated at the abdominal region of ICR mice (female, 6-week old, 4 mice in each treated group) so that the number of the carcinoma cells as subcutaneously transplanted was 2×10^6 cells per mouse. After the transplantation of the carcinoma cells, the antibiotic MI43-37F11 substance was administered by intraperitoneal injection to the mice having the transplanted and firmly grown carcinoma cells, according to the following schedule of administration. […]
On the 15th day after the transplantation of the carcinoma cells, the mass of the tumor (carcinoma) was surgically removed out of each mouse and weighed. The rate of the reduction in the weight of the tumor (carcinoma) obtained from the group of mice treated with MI43-37F11 substance was evaluated in term of the rate (%) of inhibition, with such an assumption that the weight of the tumor obtained from the control group of mice was amounting to 100. […]

In the case of COc1cc(O)c2c(=O)oc(CO)cc2c1 [MI43-37F11 substance], the Solubility ([1]; in acetonitrile) is reported as “easily soluble”, the Solubility ([1]; in chloroform) is reported as “soluble” and the Solubility ([1]; in hexane) is reported as “hardly soluble”. For the same compound, the Solubility ([1]; in methanol) was “soluble”, the Solubility ([1]; in water) was “hardly soluble” and the “Rate (%) of Increase in phagocytic action of peritoneal macrophages” value (shortened to “Rate (%) of Increase”) ([2]; 0.5 mg/kg i.p.) was 102%. For the same compound, the “Rate (%) of Increase” value ([2]; 5 mg/kg i.p.) was 80%, the “Rate (%) of Increase” value ([2]; 50 mg/kg i.p.) was 144% and the “enhance the phagocytic action of the macrophages” value ([2]; summary in words) was “effective”. For the same compound, the IC50 [3] was 52 µg/mL (≈ 234 µM), the toxicity to mammalian [4] was “low toxicity to mammalian; also recorded: without showing any observable toxicity to mammalian” and the “Rate (%) of Inhibition” value ([5]; 0.625 mg/kg i.p., 7th day (only once), tumor weight on 15th day) was 12%. For the same compound, the “Rate (%) of Inhibition” value ([5]; 0.625 mg/kg/day i.p., 7th day to 14th day, every second day, totally 5 times) was 30%, the “Rate (%) of Inhibition” value ([5]; 1.25 mg/kg/day i.p., 7th day to 14th day, every second day, totally 5 times) was 67% and the “Rate (%) of Inhibition” value ([5]; 2.5 mg/kg i.p., 7th day (only once), tumor weight on 15th day) was 51%. The “Rate (%) of Inhibition” value ([5]; 2.5 mg/kg/day i.p., 7th day to 14th day, every second day, totally 5 times) was 60%, the “Rate (%) of Inhibition” value ([5]; 10 mg/kg i.p., 7th day (only once), tumor weight on 15th day) was 59% and the “activity against Ehrlich carcinoma” value [6] was “high activity”.
